Laboratory results as given in patent publication US10314880B2, “Composition comprising bortezomib” (FTF Pharma Private Limited, priority 2015, dated 2019).

What was measured:
[1] = system: Female New-Zealand White Rabbits; details: rabbit, in vivo
Method: Also Local tolerability/tissue reaction of Bortezomib 3.5 mg/0.2 mL compared with Velcade (Reference product) in Female New-Zealand White Rabbits.
The study was conducted to assess the local tolerance of Bortezomib in comparison with Velcade (Reference product) in New Zealand White Rabbits by single subcutaneous or intravenous route.

[2] = Bortezomib as such; cited from earlier work
[3] = stress testing and accelerated stability studies; cited from earlier work

Row | Compound | External observation of the site of injection: signs of local intolerance [1] | Microscopic signs of local intolerance ([1]; iv) | animals with signs of local intolerance observed microscopically ([1]; sc) | water solubility [2] | stability in aqueous solution for injection [3]
1 | Velcade | did not reveal any signs of local intolerance | no signs of local intolerance | 50 % of animals | – | –
2 | CC(C)C[C@H](NC(=O)[C@H](Cc1ccccc1)NC(=O)c1cnccn1)B(O)O [Bortezomib, [(1R)-3-methyl-1-[[(2s)-3-phenyl-2-(pyrazine-2-carbonylamino)propanoyl]amino]butyl]boronic acid] | – | – | – | poor water solubility | unstable
